From ChEMBL document CHEMBL3639376, “IRE-1Œ± inhibitors” (2015)

Target: Serine/threonine-protein kinase/endoribonuclease IRE1 (Homo sapiens, UniProt O75460)
Assay: Inhibition Assay: A fusion protein comprising glutathione S transferase (GST) and human IRE-1alpha (GST-IRE-1alpha) obtained from a 500 ml baculovirus-infected insect cell culture can be used to measure IRE-1alpha activity in vitro. Five ul of a reaction mixture comprising IX reaction buffer (5x reaction buffer is 100 mM Hepes pH 7.5, 250 mM KOAc, 2.5 mM MgCl2), 3 mM DTT, and 0.4% polyethylene glycol water is added to each well of 384 well plates. Twenty-five nanoliters of a 1 mM test compound solution are added to test wells. Three ul of a 128 ng/ml IRE-1alpha preparation are added to each test well and to positive control wells (final concentration 5.82 ng/well). Negative control wells contain only reaction mixture and test compound.After spinning the plates at 1200 rpm for 30 seconds, 3 ul of an IRE-1alpha human mini-XBP-1 mRNA stem-loop substrate 5'-[…]-3' (SEQ ID NO:1), labeled with the fluorescent dye Cy5 at the 5' end and Black Hole Quencher 2.

Sequence of Serine/threonine-protein kinase/endoribonuclease IRE1 (O75460 whole entry, the tested form may be a part): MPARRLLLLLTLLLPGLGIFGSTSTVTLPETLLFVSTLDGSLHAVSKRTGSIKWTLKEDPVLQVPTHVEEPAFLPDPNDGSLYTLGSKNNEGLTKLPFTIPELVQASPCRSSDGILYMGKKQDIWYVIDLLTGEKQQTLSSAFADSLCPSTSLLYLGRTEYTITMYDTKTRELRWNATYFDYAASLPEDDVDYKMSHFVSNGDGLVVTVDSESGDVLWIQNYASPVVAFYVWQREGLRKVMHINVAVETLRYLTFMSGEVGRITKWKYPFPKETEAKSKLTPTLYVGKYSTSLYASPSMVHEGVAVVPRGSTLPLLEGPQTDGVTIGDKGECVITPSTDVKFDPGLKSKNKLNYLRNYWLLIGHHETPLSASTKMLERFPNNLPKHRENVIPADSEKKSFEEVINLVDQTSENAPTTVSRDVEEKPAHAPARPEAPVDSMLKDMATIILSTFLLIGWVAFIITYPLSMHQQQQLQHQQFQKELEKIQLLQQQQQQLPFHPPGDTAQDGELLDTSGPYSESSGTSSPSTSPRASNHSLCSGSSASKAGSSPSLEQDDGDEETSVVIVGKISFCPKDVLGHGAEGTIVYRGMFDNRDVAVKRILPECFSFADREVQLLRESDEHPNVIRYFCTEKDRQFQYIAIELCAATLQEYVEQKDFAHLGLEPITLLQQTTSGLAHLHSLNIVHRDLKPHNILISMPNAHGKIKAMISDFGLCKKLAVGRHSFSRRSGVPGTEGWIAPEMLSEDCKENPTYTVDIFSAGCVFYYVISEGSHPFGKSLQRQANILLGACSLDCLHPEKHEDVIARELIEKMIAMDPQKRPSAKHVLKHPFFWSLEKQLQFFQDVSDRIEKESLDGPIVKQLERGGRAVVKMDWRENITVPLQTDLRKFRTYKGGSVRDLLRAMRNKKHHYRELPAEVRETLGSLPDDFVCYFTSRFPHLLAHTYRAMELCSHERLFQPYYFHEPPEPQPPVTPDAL

Row | IC50 | Compound
1 | < 100 nM | CC(C)N1CCN(c2nc3ccc(O)c(C=O)c3s2)CC1
2 | < 1000 nM | Cc1c(-c2ccc(C(=O)N3CCC(C)CC3)cc2)c(=O)oc2c(C=O)c(O)ccc12
3 | < 10000 nM | Cc1nc(N2CCc3c(ccc(O)c3C=O)C2)sc1C(=O)N1CCOCC1
4 | < 1000 nM | Cc1c(Br)c(=O)oc2c(C=O)c(O)c(F)cc12
5 | < 100 nM | COc1cc2c(C)c(Br)c(=O)oc2c(C=O)c1O
6 | < 100 nM | O=Cc1c(O)ccc2nc(-c3ccc(C(=O)NCCN4CCOCC4)cc3)[nH]c12
7 | < 1000 nM | O=Cc1c(O)ccc2nc(-c3ccc(C(=O)O)cc3)[nH]c12
8 | < 100 nM | CN1CCN(C2CCN(c3nc4ccc(O)c(C=O)c4s3)C2)CC1 (stereo not given)
9 | < 100 nM | O=Cc1c(O)ccc2nc(-c3ccc(C(=O)N4CCOCC4)cc3)[nH]c12
10 | < 100 nM | Cc1c(-c2cccc(C(=O)N3CCCC3)c2)c(=O)oc2c(C=O)c(O)ccc12
11 | < 100 nM | Cc1c(Cc2ccccc2)c(=O)oc2c(C=O)c(O)c(O)cc12
12 | < 100 nM | Cc1c(CCC(=O)N2CCOCC2)c(=O)oc2c(C=O)c(O)ccc12
13 | < 100 nM | CC(=O)NC1CCN(c2ccc3c(C=O)c(O)ccc3n2)C1 (stereo not given)
14 | < 100 nM | O=Cc1c(O)ccc2cc(-c3ccc(Br)cc3)c(=O)oc12
15 | < 100 nM | CCN(CC)CCc1c(C)c2ccc(O)c(C=O)c2oc1=O
16 | < 100 nM | CC1CCN(C(=O)c2ccc(-c3nc4ccc(O)c(C=O)c4s3)cc2)CC1
17 | < 100 nM | Cc1c(-c2cccc(C(=O)N3CCOCC3)c2)c(=O)oc2c(C=O)c(O)ccc12
18 | < 100 nM | Cc1c(Br)c(=O)oc2c(C=O)c(O)ccc12
19 | < 100 nM | CC1CCN(C(=O)c2ccc(-c3ccc4c(C=O)c(O)ccc4n3)cc2)CC1
20 | < 100 nM | Cc1c(-c2ccc(C(=O)N3CCN(C)CC3)cc2)c(=O)oc2c(C=O)c(O)ccc12
21 | < 100 nM | O=Cc1c(O)ccc2nc(N3CCC(NC(=O)CN4CCOCC4)C3)ccc12 (stereo not given)
22 | < 100 nM | CN1CCN(C(=O)c2ccc(-c3nc4ccc(O)c(C=O)c4[nH]3)cc2)CC1
23 | < 100 nM | O=Cc1c(O)ccc2nc(-c3ccc(C(=O)N4CCCC4)cc3)ccc12
24 | < 1000 nM | O=Cc1c(O)ccc2nc(-c3cccc(C(=O)N4CCOCC4)c3)ccc12
25 | < 1000 nM | Cc1c(-c2ccc(C(=O)N3CCCC3)cc2)c(=O)oc2c(C=O)c(O)ccc12
26 | < 1000 nM | Cc1cc(=O)oc2c(C=O)c(O)c(F)cc12
27 | < 100 nM | CN1CCN(C(=O)c2ccc(-c3nc4ccc(O)c(C=O)c4s3)s2)CC1
28 | > 10000 nM | CN1CCN(CCC(=O)N2CCc3c(ccc(O)c3C=O)C2)CC1
29 | < 1000 nM | COc1cc2c(C)c(-c3ccc(C(=O)N4CCOCC4)cc3)c(=O)oc2c(C=O)c1O
30 | < 1000 nM | COC(=O)c1ccc(-c2nc3ccc(O)c(C=O)c3[nH]2)cc1
